{"source": "paper PMC4710668", "about": "“Bioactivation of food genotoxicants 5-hydroxymethylfurfural and furfuryl alcohol by sulfotransferases from human, mouse and rat: a comparative study” (Archives of Toxicology, 2014)", "test_in_all_cases": "HMF sulfoconjugation assay", "assay_type_in_all_cases": "biochemical", "key": {"[1]": {"target": "T1, mSult2b1b (Mus musculus, UniProt O35400)", "T1 construct": "made in house; host or cells: Salmonella typhimurium TA1538 (cytosolic fraction, enzyme not purified)", "T1 sequence (O35400 1-338)": "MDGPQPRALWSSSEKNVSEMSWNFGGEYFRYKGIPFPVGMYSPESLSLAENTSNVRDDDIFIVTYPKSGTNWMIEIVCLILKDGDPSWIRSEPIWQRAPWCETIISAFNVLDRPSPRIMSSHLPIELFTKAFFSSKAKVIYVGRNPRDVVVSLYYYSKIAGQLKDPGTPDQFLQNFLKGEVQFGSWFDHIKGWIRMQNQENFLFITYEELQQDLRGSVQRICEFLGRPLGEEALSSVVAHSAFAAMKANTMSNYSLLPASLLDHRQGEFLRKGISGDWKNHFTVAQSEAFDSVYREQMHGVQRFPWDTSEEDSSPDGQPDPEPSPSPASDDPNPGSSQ", "procedure": "(§1) Cytosolic fractions containing individual SULT forms were prepared from transgenic S. typhimurium TA1538. Table S1 in the Supplementary Material provides a summary of the thirty SULTs used in the current study together with references describing the cloning of the respective S. typhimurium TA1538 strains. The expressed SULT forms are denoted with the prefixes h, m and r for human, mouse and rat enzymes, respectively. Bacteria were grown in Luria Broth medium containing ampicillin (100 µg/ml) by stirring for 8 h at 200 revolutions/min at 37 °C. The bacterial suspensions were centrifuged at 5,000 g for 10 min. The sediments were washed twice with 25 ml of 10 mM potassium phosphate buffer (pH 7.4)/50 mM potassium chloride (KCP buffer) and centrifuged again. The pellets were taken up in 800 µl KCP buffer and sonicated thrice for 15 s with 30 s pauses in between. The soluble fraction was attained by centrifuging for 1 h at 100,000 g. The supernatants (in the following termed cytosolic preparations) were frozen at −80 °C. The protein concentrations were determined according to a bicinchoninic acid (BCA) assay protocol. The SULT concentrations in the cytosolic preparations were estimated after electrophoretic separation and immunodetection using inclusion bodies of different SULT forms as standards (Teubner et al. [2007]). The preparation of SULT inclusion bodies and the immunodetection of SULTs is described in the Supplementary Material, which also contains a representative immunoblot of different amounts of rSult1a1standard and a cytosolic preparation of S. typhimurium expressing rSult1a1 (Fig. S1).\n(§2) The reactions were conducted in mixtures of 100 µl containing 25–200 µg protein, 50 mM potassium phosphate buffer (pH 7.4), 5 mM MgCl2, 50 µM PAPS and different concentrations of HMF at 37 °C. Preliminary experiments ensured that measurements were recorded under ‘linear’ conditions, i.e., doubling of protein concentration or incubation time was doubling the amount of sulfate ester formed. The reactions were stopped after 30 min by adding 300 µl ice-cold 2-propanol, mixed and centrifuged at 15,000 g for 10 min.\n(§3) SMF concentrations of the clear supernatants were analyzed by UPLC-MS/MS. The protocol was adapted from the quantification of SMF in plasma samples of HMF-treated mice (Monien et al. [2009]). In short, the supernatants were analyzed using a UPLC system (Waters) connected to a Quattro Premier XE tandem quadrupole mass spectrometer (Waters) using the negative electrospray ionization mode. Samples of 4 µl were injected into a HSS T3 column (1.8 µm, 2.1 × 100 mm; Waters) and eluted with an isocratic flow of 0.35 ml/min 10 mM ammonium acetate/methanol (95:5). The fragmentation reactions of SMF yielding two principal ions, the sulfate ion radical (m/z = 204.9 → 96.0) and the protonated sulfonate ion (m/z = 204.9 → 81.0) were monitored. The tune parameters were as follows: temperature of the electrospray source 120 °C; desolvation temperature 475 °C; desolvation gas nitrogen (800 l/h); cone gas nitrogen (100 l/h); collision gas argon (indicated cell pressure ~5 × 10^−3 mbar). For the fragmentation of SMF, collision energies were 20 and 23 eV for the transitions m/z = 204.9 → 81.0 and m/z = 204.9 → 96.0, respectively. The dwell time was set to 100 ms, and capillary voltage was set to 0.35 kV. The cone and RF1 lens voltages were 32 and 0.2 V, respectively. SMF was quantified using an external calibration line that was linear in the concentration range of 1.0 nM (4 fmol/injection) to 2,500 (10 pmol/injection) SMF (r ^2 ≥ 0.99). Data acquisition and handling were performed with MassLynx 4.1 software (Waters). The limit of detection (LOD) for this technique of 2.5 nM SMF has been reported (Monien et al. [2009]). In the current study, this corresponds to 10 fmol SMF per injection or a reaction rate of 0.5 pmol SMF/mg/min."}, "[2]": {"target": "T2, hSULT1A2 (Homo sapiens, UniProt P50226)", "T2 construct": "made in house; host or cells: Salmonella typhimurium TA1538 (cytosolic fraction, not purified)", "T2 sequence (P50226 whole entry)": "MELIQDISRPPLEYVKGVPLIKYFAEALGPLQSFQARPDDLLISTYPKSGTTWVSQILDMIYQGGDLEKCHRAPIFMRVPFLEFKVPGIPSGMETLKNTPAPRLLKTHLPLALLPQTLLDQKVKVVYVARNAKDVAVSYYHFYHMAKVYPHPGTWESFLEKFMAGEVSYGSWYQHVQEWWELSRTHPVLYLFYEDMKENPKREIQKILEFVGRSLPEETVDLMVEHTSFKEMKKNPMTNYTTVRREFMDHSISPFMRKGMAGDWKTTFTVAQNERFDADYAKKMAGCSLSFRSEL", "procedure": "as §1, §2, §3"}, "[3]": {"target": "T3, rSult1b1 (Rattus norvegicus, UniProt P52847)", "T3 construct": "made in house; host or cells: Salmonella typhimurium TA1538 (cytosolic fraction, enzyme not purified)", "T3 sequence (P52847 whole entry)": "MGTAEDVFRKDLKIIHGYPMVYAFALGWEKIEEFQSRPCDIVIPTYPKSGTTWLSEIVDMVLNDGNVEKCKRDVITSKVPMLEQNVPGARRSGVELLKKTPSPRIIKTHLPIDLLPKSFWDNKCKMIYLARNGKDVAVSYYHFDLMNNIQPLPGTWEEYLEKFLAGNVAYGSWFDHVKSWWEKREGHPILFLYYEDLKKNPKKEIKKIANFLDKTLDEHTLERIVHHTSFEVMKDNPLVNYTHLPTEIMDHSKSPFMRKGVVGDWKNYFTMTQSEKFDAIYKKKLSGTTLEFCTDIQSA", "procedure": "as §1, §2, §3"}, "[4]": {"target": "T4, rSult1c2 (Rattus norvegicus, UniProt Q9WUW8)", "T4 construct": "made in house; host or cells: Salmonella typhimurium TA1538 (cytosolic fraction, enzyme not purified)", "T4 sequence (Q9WUW8 whole entry)": "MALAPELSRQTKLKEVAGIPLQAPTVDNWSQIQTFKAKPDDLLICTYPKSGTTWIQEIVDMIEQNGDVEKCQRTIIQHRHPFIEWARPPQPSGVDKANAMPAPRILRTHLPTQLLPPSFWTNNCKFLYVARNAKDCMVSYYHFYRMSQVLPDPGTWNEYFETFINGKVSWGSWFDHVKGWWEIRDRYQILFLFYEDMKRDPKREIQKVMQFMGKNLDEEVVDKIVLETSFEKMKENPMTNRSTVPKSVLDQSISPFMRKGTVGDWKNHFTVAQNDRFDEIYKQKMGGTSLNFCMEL", "procedure": "as §1, §2, §3"}, "[5]": {"target": "T5, mSult2a1 (Mus musculus, UniProt P52843)", "T5 construct": "made in house; host or cells: Salmonella typhimurium TA1538 (cytosolic fraction, enzyme not purified)", "T5 sequence (P52843 1-285)": "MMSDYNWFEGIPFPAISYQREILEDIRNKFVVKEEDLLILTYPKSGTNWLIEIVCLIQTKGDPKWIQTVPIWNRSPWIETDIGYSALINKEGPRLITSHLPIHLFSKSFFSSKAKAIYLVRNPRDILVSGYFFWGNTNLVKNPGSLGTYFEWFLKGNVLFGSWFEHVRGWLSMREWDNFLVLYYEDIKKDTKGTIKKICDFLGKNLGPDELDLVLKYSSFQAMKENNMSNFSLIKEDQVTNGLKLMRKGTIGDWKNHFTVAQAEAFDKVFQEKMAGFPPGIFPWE", "procedure": "as §1, §2, §3"}, "[6]": {"target": "T6, rSult1a1 (Rattus norvegicus, UniProt P17988)", "T6 construct": "made in house; host or cells: Salmonella typhimurium TA1538 (cytosolic fraction, enzyme not purified)", "T6 sequence (P17988 whole entry)": "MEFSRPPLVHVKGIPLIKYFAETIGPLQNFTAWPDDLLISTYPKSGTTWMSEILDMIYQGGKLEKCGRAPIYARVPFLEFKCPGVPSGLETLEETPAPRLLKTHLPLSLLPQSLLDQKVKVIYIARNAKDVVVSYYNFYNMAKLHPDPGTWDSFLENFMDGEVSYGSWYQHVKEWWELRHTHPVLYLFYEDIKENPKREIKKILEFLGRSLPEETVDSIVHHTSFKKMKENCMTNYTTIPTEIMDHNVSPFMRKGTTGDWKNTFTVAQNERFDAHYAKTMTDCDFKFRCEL", "procedure": "as §1, §2, §3"}, "[7]": {"conditions": "HMF sulfoconjugation, Michaelis-Menten fit"}}}
{"smiles": "O=Cc1ccc(CO)o1", "note": "[HMF, 5-Hydroxymethylfurfural]", "values": [{"measurement": "Rate of sulfoconjugation", "setting": "[1]; 0.1 mM HMF", "result": "<0.5", "unit": "pmol/mg/min"}, {"measurement": "Rate of sulfoconjugation", "setting": "[1]; 1 mM HMF", "result": "<0.5", "unit": "pmol/mg/min"}, {"measurement": "Rate of sulfoconjugation", "setting": "[1]; 10 mM HMF", "result": "<0.5", "unit": "pmol/mg/min"}, {"measurement": "Rate of sulfoconjugation", "setting": "[1]; 100 mM HMF", "result": "<0.5", "unit": "pmol/mg/min"}, {"measurement": "Rate of sulfoconjugation", "setting": "[2]; 0.1 mM HMF", "result": "<0.5", "unit": "pmol/mg/min"}, {"measurement": "Rate of sulfoconjugation", "setting": "[2]; 1 mM HMF", "result": "15.2 ± 4.5", "unit": "pmol/mg/min"}, {"measurement": "Rate of sulfoconjugation", "setting": "[2]; 10 mM HMF", "result": "130 ± 53", "unit": "pmol/mg/min"}, {"measurement": "Rate of sulfoconjugation", "setting": "[2]; 100 mM HMF", "result": "628 ± 233", "unit": "pmol/mg/min"}, {"measurement": "K M", "setting": "[2]; [7]", "result": "56.5 ± 5.4", "unit": "mM"}, {"measurement": "Rate of sulfoconjugation", "setting": "[3]; 0.1 mM HMF", "result": "<0.5", "unit": "pmol/mg/min"}, {"measurement": "Rate of sulfoconjugation", "setting": "[3]; 1 mM HMF", "result": "3.4 ± 0.2", "unit": "pmol/mg/min"}, {"measurement": "Rate of sulfoconjugation", "setting": "[3]; 10 mM HMF", "result": "25.2 ± 0.4", "unit": "pmol/mg/min"}, {"measurement": "Rate of sulfoconjugation", "setting": "[3]; 100 mM HMF", "result": "30.8 ± 1.2", "unit": "pmol/mg/min"}, {"measurement": "K M", "setting": "[3]; [7]", "result": "15.7 ± 0.9", "unit": "mM"}, {"measurement": "Rate of sulfoconjugation", "setting": "[4]; 0.1 mM HMF", "result": "<0.5", "unit": "pmol/mg/min"}, {"measurement": "Rate of sulfoconjugation", "setting": "[4]; 1 mM HMF", "result": "<0.5", "unit": "pmol/mg/min"}, {"measurement": "Rate of sulfoconjugation", "setting": "[4]; 10 mM HMF", "result": "2.3 ± 0.2", "unit": "pmol/mg/min"}, {"measurement": "Rate of sulfoconjugation", "setting": "[4]; 100 mM HMF", "result": "15.0 ± 1.1", "unit": "pmol/mg/min"}, {"measurement": "Rate of sulfoconjugation", "setting": "[5]; 0.1 mM HMF", "result": "<0.5", "unit": "pmol/mg/min"}, {"measurement": "Rate of sulfoconjugation", "setting": "[5]; 1 mM HMF", "result": "1.3 ± 0.2", "unit": "pmol/mg/min"}, {"measurement": "Rate of sulfoconjugation", "setting": "[5]; 10 mM HMF", "result": "9.0 ± 0.9", "unit": "pmol/mg/min"}, {"measurement": "Rate of sulfoconjugation", "setting": "[5]; 100 mM HMF", "result": "13.1 ± 1.7", "unit": "pmol/mg/min"}, {"measurement": "Rate of sulfoconjugation", "setting": "[6]; 0.1 mM HMF", "result": "<0.5", "unit": "pmol/mg/min"}, {"measurement": "Rate of sulfoconjugation", "setting": "[6]; 1 mM HMF", "result": "6.5 ± 2.1", "unit": "pmol/mg/min"}, {"measurement": "Rate of sulfoconjugation", "setting": "[6]; 10 mM HMF", "result": "43.6 ± 13.7", "unit": "pmol/mg/min"}, {"measurement": "Rate of sulfoconjugation", "setting": "[6]; 100 mM HMF", "result": "36.1 ± 16.8", "unit": "pmol/mg/min"}, {"measurement": "K M", "setting": "[6]; [7]", "result": "4.9 ± 0.7", "unit": "mM"}]}
